Measured values taken from article PMC9503518, “Antibacterial and Antifungal Properties of a Novel Antimicrobial Peptide GK-19 and Its Application in Skin and Soft Tissue Infections Induced by MRSA or Candida albicans” (Pharmaceutics, 2022).
Where no end group is shown, it is not given here.

Key:
[1] = system: Candida glabrata (C. glabrata, ATCCMYA-2950); assay type: cell-based; conditions: 1 × 10^6 CFU/mL, PDB, 12 h, peptide 0-20 μM, absorbance at 600 nm, n = 5
Excerpt: (§1) Pseudomonas aeruginosa (P. aeruginosa, ATCC27853), Methicillin-Resistant Staphylococcus aureus (MRSA, 2104270609, clinically isolated strain), Escherichia coli (E. coli, ATCC25922), Klebsiella pneumoniae (K. pneumoniae, ATCC700603), Enterococcus faecalis (E. faecalis, ATCC29212), Candida krusei (C. krusei, ATCC6258), Candida albicans (C. albicans, ATCC90028), and Candida glabrata (C. glabrata, ATCCMYA-2950) were obtained from the First Affiliated Hospital of Xi’an Jiaotong University. Bacterial strains were cultured in MHA or MHB. Fungal strains were cultured in PDA or PDB.
(§2) Strains were incubated in MHB or PDB. After growing for 12–16 h at 37 °C, 200 rpm, 100 μL of 1 × 10^6 CFU/mL of the strains was seeded into 96-well plates and incubated with fresh culture medium containing various antimicrobial peptides (peptide concentration: 0, 0.5, 1.0, 2.0, 3.0, 5.0, 10, 15 or 20 μM) for 12 h. Each concentration was repeated five times. Absorbance at 600 nm was measured using the Multilabel Reader Varioskan Flash (Thermo Fisher). […] (1)

[2] = system: Pseudomonas aeruginosa (P. aeruginosa, ATCC27853); assay type: cell-based; conditions: 1 × 10^6 CFU/mL, MHB, 12 h, peptide 0-20 μM, absorbance at 600 nm, n = 5
Excerpt: as §1, §2

[3] = system: Candida krusei (C. krusei, ATCC6258); assay type: cell-based; conditions: 1 × 10^6 CFU/mL, PDB, 12 h, peptide 0-20 μM, absorbance at 600 nm, n = 5
Excerpt: as §1, §2

[4] = system: Enterococcus faecalis (E. faecalis, ATCC29212); assay type: cell-based; conditions: 1 × 10^6 CFU/mL, MHB, 12 h, peptide 0-20 μM, absorbance at 600 nm, n = 5
Excerpt: as §1, §2

[5] = system: Klebsiella pneumoniae (K. pneumoniae, ATCC700603); assay type: cell-based; conditions: 1 × 10^6 CFU/mL, MHB, 12 h, peptide 0-20 μM, absorbance at 600 nm, n = 5
Excerpt: as §1, §2

[6] = system: Escherichia coli (E. coli, ATCC25922); assay type: cell-based; conditions: 1 × 10^6 CFU/mL, MHB, 12 h, peptide 0-20 μM, absorbance at 600 nm, n = 5
Excerpt: as §1, §2

[7] = system: Candida albicans (C. albicans, ATCC90028); assay type: cell-based; conditions: 1 × 10^6 CFU/mL, PDB, 12 h, peptide 0-20 μM, absorbance at 600 nm, n = 5
Excerpt: as §1, §2

[8] = system: Methicillin-Resistant Staphylococcus aureus (MRSA, 2104270609, clinically isolated strain); assay type: cell-based; conditions: 1 × 10^6 CFU/mL, MHB, 12 h, peptide 0-20 μM, absorbance at 600 nm, n = 5
Excerpt: as §1, §2

rat erythrocytes = conditions: rat RBC suspension in PBS, up to 100 μM, 37 °C, 1 h, OD 576 nm, 1% Triton X-100 = 100%, six replicates
Experimental: The hemolysis assay was carried out as reported in the literature [22]. Briefly, healthy male rats weighing ~300 g were anesthetized by isoflurane using a small animal anesthesia machine (R640, RWD Life Science, Shenzhen, China). Fresh rat blood samples were drawn from the ventral main vein and collected into an ethylene diamine tetraacetic acid (EDTA) treated anticoagulation tube. The collected blood samples were centrifuged at 4 °C, 350× g for five minutes. Red blood cells (RBCs) were pipetted and washed three times with cold PBS. […] These tubes were incubated at 37 °C, 1000 rpm in a BG200 dry bath incubator (Hangzhou LongGene Scientific Instruments Co., Ltd., Hangzhou, China) for 1 h. Then, the tubes were centrifuged at 350× g for 5 min. Next, 20 μL of the supernatants was mixed with 180 μL of PBS. Afterwards, 100 μL of the mixture was transferred into 96-well plates and hemoglobin release was monitored at 576 nm using a Multilabel Reader Varioskan Flash (Thermo Fisher). The RBC suspension in PBS was used as a negative control. The absorbance of the wells containing 1% Triton X-100 was taken as 100% hemolysis. The percentage of hemolysis was calculated using this formula:Hemolysis (%) = [(OD576 nm of the peptide solution − OD576 nm of the negative control)/(OD576 nm of the positive control − OD576 nm of the negative control)] × 100. (3) […]

[9] = Peptide stability in rat serum by HPLC; assay type: in vitro ADME; conditions: 10 mg/mL in rat serum, 37 °C, 200 rpm, 24 h, HPLC peak area 220 nm, repeated three times; read-out: peptide remaining after 24 h of co-incubation with rat serum
Experimental: (§3) Antimicrobial peptides were dissolved in water or rat serum with a concentration of 10 mg/mL. The solution was incubated at 37 °C, 200 rpm for different time periods, and diluted 50 times for the HPLC analysis. In water, the incubation time was 0 h and 48 h. In rat serum, the incubation time was 0, 2, 4, 7, 12, 24 or 48 h. Each incubation condition was repeated three times. HPLC was conducted on a Waters HPLC system, which consisted of a 2996 photodiode array detector, a 2695 separation module and a temperature control column oven. Column: Sinochrom ODS-BP, 5 μm, 4.6 × 250 mm (Dalian Elite Analytical Instruments Co., Ltd., Dalian, China). Mobile phase: A: 100% ACN + 0.1% TFA; B: 100% Water + 0.1% TFA. Gradient elution: 0–20 min, 95% B–100% A; 20–25 min, 100% A. Detection wavelength: 220 nm. Flow rate: 1 mL/min. Sample volume: 50 μL (0.2 mg/mL).

Kunming mice = conditions: mouse, in vivo, iv
Experimental: Forty healthy male Kunming mice weighing ~25 g (5–6 weeks old) were injected intravenously with 100 μL of GK-19 with concentrations of 5 μmol/kg (n = 15) or 25 μmol/kg (n = 15). Mice blood samples (n = 5, per group and per time point) were collected from the mice’s eyeballs on days 1, 3 and 7 after injection for renal function test and liver function test. Meanwhile, major organs including lungs, heart, kidneys, liver and spleen were also harvested for hematoxylin and eosin staining on days 1, 3 and 7 after injection. To monitor the body weight changes in mice after injection of GK-19, five healthy male Kunming mice weighing ~25 g were injected intravenously with 100 μL of GK-19 with concentrations of 25 μmol/kg. Mice weights were recorded daily for seven days.
The hematoxylin and eosin staining in this study was carried out by Servicebio (Wuhan, China). Briefly, the obtained skin tissues were soaked in 4% paraformaldehyde solution (Beyotime, China) and fixed for more than 24 h. Then, they were dehydrated and embedded with paraffin, and tissue sections having thicknesses of 4 μm were prepared. After deparaffinization and rehydration, hematoxylin and eosin staining was performed.

[10] = Peptide stability in water by HPLC; assay type: physicochemical; conditions: 10 mg/mL in water, 37 °C, 200 rpm, 0 and 48 h, HPLC 220 nm, repeated three times
Experimental: as §3

In the case of GFLFKLIPKAIKKLISKFK [GK-19], the “Minimum inhibitory concentration (MIC), C. glabrata” value [1] is reported as 10 µM, the “Minimum inhibitory concentration (MIC), P. aeruginosa” value [2] is reported as 5 µM and the “Minimum inhibitory concentration (MIC), C. krusei” value [3] is reported as 5 µM. The “Minimum inhibitory concentration (MIC), E. faecalis” value [4] was 3 µM, the “Minimum inhibitory concentration (MIC), K. pneumoniae” value [5] was 5 µM and the “Minimum inhibitory concentration (MIC), E. coli” value [6] was 3 µM. For the same sequence, the “Minimum inhibitory concentration (MIC), C. albicans” value [7] was 10 µM, the “Minimum inhibitory concentration (MIC), MRSA” value [8] was 5 µM and the hemolytic activity (rat erythrocytes) was “negligible hemolytic activity”. The remaining at 24 h, 10 mg/mL [9] was > 50%, the body weight change (Kunming mice) was “gradual gain in body weight” and the “histology of major organs (heart, liver, spleen, lungs, kidneys)” value (Kunming mice) was “no observable tissue damage, necrosis, or inflammation”. The “liver and renal function tests” value (Kunming mice) was “no difference from that in healthy mice” and the “time for which structural stability was retained in water” value [10] was ≥ 48 h.
